Data from patent US20040007689A1, “Process for controlling the hydrate mix of a compound” (Pfizer Inc., priority 2002, published 2004).

Key:
[1] = Chemical and thermal stability of DSFF hydration forms and hydrate mixes; format: physicochemical; details: for stability of hydration form (chemical / thermal): hydration forms of DSFF, solid state
[2] = Water content of freeze-dried DSFF product; format: physicochemical; details: DSFF subjected to a typical freeze-drying process

Row | stability of product of typical freeze-drying process ([1]; DSFF after typical freeze-drying with secondary drying, water content about 1.2% w/w (below monohydrate stoichiometry)) | water content of product of typical freeze-drying process [2] | stability of hydration form (chemical / thermal) [1] | Compound
1 | chemically unstable and degrades | about 1.2 % w/w | – | O=P([O-])([O-])OC(Cn1cncn1)(Cn1cncn1)c1ccc(F)cc1F.[Na+].[Na+] [DSFF, disodium salt of fosfluconazole]
2 | – | – | chemically and thermally stable | O.O.O.O.O.O.O=P([O-])([O-])OC(Cn1cncn1)(Cn1cncn1)c1ccc(F)cc1F.[Na+].[Na+] [hexahydrate, DSFF Hexahydrate]
3 | – | – | chemically and thermally stable | O.O.O.O=P([O-])([O-])OC(Cn1cncn1)(Cn1cncn1)c1ccc(F)cc1F.[Na+].[Na+] [trihydrate, DSFF Trihydrate]
